According to patent publication US20140018242A1, “METHOD OF CROP ENHANCEMENT” (SYNGENTA PARTICIPATIONS AG, priority 2010, published 2014):

Tests used:
[1] = system: Soybeans (Glycine max); experiment: Seed application on soybeans in pouch, plant growth effects (shoot length, root system); type: in vivo; conditions: 14 days, additional growth vs blank formulation check
Method: The formulated test compounds were added to a defined amount of water. This solution was applied into a pouch which was previously equipped with a filter paper. After the application soybean seeds were sown into the upper fault of the filter paper. The prepared pouches were then incubated for 14 days at 25° C. and a relative humidity of 65% with a photo period of 16 h. The evaluation was made by assessing the shoot length and the root system. Data represent the average of 10 replicates (1seed/plant per pouch).

[2] = system: French beans (Phaseolus vulgaris); experiment: Soil application to French beans, effects on flowering (BBCH) and plant physiology (NDVI, NIR); type: in vivo; set-up: NIR (Near infrared band reflectance): unit not given here; conditions: 0.01 mg AI per plant drench, mean of 4 reps; for BBCH (plant growth stage): 15DAA, check 57; for NDVI (Normalized difference vegetative index) / NIR (Near infrared band reflectance): 25DAA; for NDVI (Normalized difference vegetative index): check 0.431; for NIR (Near infrared band reflectance): check 4.32
Method: Four two week old French bean plants were treated with 0.01 mg Al per plant as soil application (drench). Plants were kept under glasshouse conditions at 22° C. with a photo-period of 14 h. 15DAA the development stage of blossoms was assessed. 25DAA the photosynthetic capacity of plants (NDVI, NIR) was measured.

SMILES	melting point	Mean shoot height increase (%) ([1]; AI concentration 5 ppm)	Mean shoot height increase in cm ([1]; AI concentration 5 ppm)	further results
CON1CCC2(CC1)C(O)=C(c1cc(Br)c(C)cc1C)C(=O)N2OC [Compound P2ii.75]	86 to 87 °C	–	–	–
CCOC(=O)OC1=C(c2c(C)ccc(C)c2C)C(=O)N(C)C12CCN(OC)CC2 [Compound P1.21]	–	24.5%	5.8 cm	–
CON1CCC2(CC1)C(O)=C(c1cc(C)c(C)cc1C)C(=O)N2C [Compound P2.25]	183 to 186 °C	–	–	–
CON1CCC2(CC1)C(O)=C(c1cc(C)c(C)cc1Cl)C(=O)N2C [Compound P2.26, 3-(2-Chloro-4,5-dimethyl-phenyl)-4-hydroxy-8-methoxy-1-methyl-1,8-diaza-spiro[4.5]dec-3-en-2-one]	191 to 192 °C	–	–	–
CCOC(=O)OC1=C(c2c(C)cc(C)cc2C)C(=O)N(C)C12CCN(OC)CC2 [Compound P1.2, Carbonic acid ethyl ester 8-methoxy-1-methyl-2-oxo-3-(2,4,6-trimethyl-phenyl)-1,8-diaza-spiro[4.5]dec-3-en-4-yl ester]	–	8.5%	1.7 cm	–
CCOC(=O)OC1=C(c2cc(C)c(C)cc2C)C(=O)N(OC)C12CCN(OC)CC2 [Compound P1ii.57]	–	10.2%	2.4 cm	–
CCOC(=O)OC1=C(c2c(C)cc(C)cc2OC)C(=O)NC12CCN(OC)CC2 [T1iii.072, wherein G is COOCH2CH3]	–	8.9%	2.1 cm	–
COCON1C(=O)C(c2c(C)cc(C)cc2C)=C(O)C12CCN(OC)CC2 [Compound T20ii.070]	–	–	–	BBCH (plant growth stage) [2]: 58; NDVI (Normalized difference vegetative index) [2]: 0.518; NIR (Near infrared band reflectance) [2]: 4.59
CCOC(=O)OC1=C(c2cc(C)c(C)cc2C)C(=O)N(OCOC)C12CCN(OC)CC2 [Compound P1ii.56]	–	7.2%	1.7 cm	–
COCON1C(=O)C(c2cc(C)ccc2C)=C(OC)C12CCN(OC)CC2 [Compound P1ii.31]	91 to 93 °C	–	–	–
COCON1C(=O)C(c2cc(C)ccc2C)=C(O)C12CCN(OC)CC2 [Compound T20ii.030]	–	–	–	BBCH (plant growth stage) [2]: 58; NDVI (Normalized difference vegetative index) [2]: 0.427; NIR (Near infrared band reflectance) [2]: 4.07
CCOC(=O)OC1=C(c2cc(C)c(C)cc2Cl)C(=O)N(C)C12CCN(OC)CC2 [Compound P1.22]	149 to 150 °C	–	–	–
CCOC(=O)OC1=C(c2c(C)cc(C)cc2C)C(=O)N(OCC)C12CCN(OC)CC2 [Compound P1ii.15]	–	38.9%	3.8 cm	–
C=CCOC(=O)OC1=C(c2c(C)cc(C)cc2C)C(=O)N(C)C12CCN(OC)CC2 [T1.070, wherein G is COOCH2CH═CH2]	–	10.2%	2.1 cm	–
COCCON1C(=O)C(c2cc(Br)c(F)cc2C)=C(O)C12CCN(OC)CC2 [Compound P2ii.87]	71 to 74 °C	–	–	–
COCON1C(=O)C(c2c(C)cc(Cl)cc2C)=C(O)C12CCN(OC)CC2 [Compound P2ii.104]	176 to 178 °C	–	–	–
CON1CCC2(CC1)C(O)=C(c1cc(Br)c(C)cc1C)C(=O)N2C [Compound P2.28]	182 to 183 °C	–	–	–
COCON1C(=O)C(c2c(F)ccc(C)c2Cl)=C(O)C12CCN(OC)CC2 [Compound P2ii.60]	155 to 158 °C	–	–	–
CON1CCC2(CC1)C(O)=C(c1cc(C)c(C)cc1Br)C(=O)N2C [Compound P2.23]	191 to 193 °C	–	–	–
CCOC(=O)OC1=C(c2c(C)cc(C)cc2C)C(=O)N(CC)C12CCN(OC)CC2 [Compound P1.8]	101 to 103 °C	–	–	–
CCOC(=O)OC1=C(c2c(C)cc(Cl)cc2OC)C(=O)NC12CCN(OC)CC2 [T1iii.096, wherein G is COOCH2CH3]	–	18.4%	3.8 cm	–
CCOC(=O)OC1=C(c2c(C)cc(C)cc2OC)C(=O)N(OCC)C12CCN(OC)CC2 [T3ii.072, wherein G is COOCH2CH3]	–	10.6%	2.2 cm	–
CON1CCC2(CC1)C(O)=C(c1c(C)cc(C)cc1C)C(=O)N2CC1CC1 [Compound P2.8, 1-Cyclopropylmethyl-4-hydroxy-8-methoxy-3-(2,4,6-trimethyl-phenyl)-1,8-diaza-spiro[4.5]dec-3-en-2-one]	223 to 225 °C	–	–	–

SMILES	melting point	Mean shoot height increase (%) ([1]; AI concentration 5 ppm)	Mean shoot height increase in cm ([1]; AI concentration 5 ppm)	further results
CCOC(=O)OC1=C(c2c(C)cc(C)cc2CC)C(=O)NC12CCN(OC)CC2 [T1iii.071, wherein G is COOCH2CH3]	–	8.6%	1.8 cm	–
CON1CCC2(CC1)C(O)=C(c1c(C)cc(Cl)cc1C)C(=O)N2OC [Compound P2ii.102]	88 to 92 °C	–	–	–
CCOC(=O)OC1=C(c2cc(C)c(C)cc2Br)C(=O)N(C)C12CCN(OC)CC2 [Compound P1.20]	158 to 159 °C	–	–	–
COCON1C(=O)C(c2cc(Br)c(F)cc2C)=C(O)C12CCN(OC)CC2 [Compound P2ii.89]	64 to 67 °C	–	–	–
CON1CCC2(CC1)C(O)=C(c1c(C)cc(C)cc1C)C(=O)N2C [Compound T1.070]	–	–	–	BBCH (plant growth stage) [2]: 59; NDVI (Normalized difference vegetative index) [2]: 0.418; NIR (Near infrared band reflectance) [2]: 3.81
COCCON1C(=O)C(c2cc(Br)c(C)cc2C)=C(O)C12CCN(OC)CC2 [Compound P2ii.73]	63 to 64 °C	–	–	–
CCOC(=O)OC1=C(c2c(F)ccc(C)c2Cl)C(=O)N(OCOC)C12CCN(OC)CC2 [Compound P1ii.61]	116 to 119 °C	–	–	–
CCOC(=O)OC1=C(c2c(C)cc(Br)cc2CC)C(=O)N(OC2CCCO2)C12CCN(OC)CC2 (centres unmarked) [T25N.078, wherein G is COOCH2CH3]	–	14.5%	3.0 cm	–
COCON1C(=O)C(c2cc(C)ccc2C)=C(OC(=O)CC(C)(C)C)C12CCN(OC)CC2 [Compound P1ii.5]	93 to 95 °C	–	–	–
COCCON1C(=O)C(c2c(C)cc(Cl)cc2C)=C(O)C12CCN(OC)CC2 [Compound P2ii.101]	161 to 164 °C	–	–	–
CON1CCC2(CC1)C(O)=C(c1c(C)cc(Cl)cc1C)C(=O)N2OC1CCCO1 (centres unmarked) [Compound P2ii.105]	137 to 139 °C	–	–	–
CCOC(=O)OC1=C(c2cc(C)ccc2C)C(=O)N(C)C12CCN(OC)CC2 [Compound P1.1]	96 to 110 °C	–	–	–
CCOC(=O)OC1=C(c2c(C)cc(Cl)cc2C)C(=O)N(OC)C12CCN(OC)CC2 [Compound P1ii.114]	122 to 125 °C	–	–	–
CCOC(=O)OC1=C(c2c(C)cc(Cl)cc2OC)C(=O)N(C)C12CCN(OC)CC2 [T1.096, wherein G is COOCH2CH3]	–	6.6%	1.4 cm	–
CCOC(=O)OC1=C(c2c(C)cc(Br)cc2CC)C(=O)N(C)C12CCN(OC)CC2 [T1.078, wherein G is COOCH2CH3]	–	8.1%	1.7 cm	–
CCN1C(=O)C(c2c(C)cc(C)cc2C)=C(O)C12CCN(OC)CC2 [Compound P2.11]	218 to 221 °C	–	–	–
CCOC(=O)OC1=C(c2c(C)cc(Cl)cc2C)C(=O)NC12CCN(OC)CC2 [T1iii.067, wherein G is COOCH2CH3]	–	15.5%	3.9 cm	–
COCON1C(=O)C(c2c(C)cc(-c3ccc(Cl)cc3)cc2C)=C(O)C12CCN(OC)CC2 [Compound P2ii.15, 3-(4′-Chloro-3,5-dimethyl-biphenyl-4-yl)-4-hydroxy-8-methoxy-1-methoxymethoxy-1,8-diaza-spiro[4.5]dec-3-en-2-one]	128 °C (dec.)	–	–	–
CON1CCC2(CC1)C(O)=C(c1c(C)cc(C)cc1C)C(=O)N2OCCOC1CCCCO1 (centres unmarked) [Compound P2ii.22]	135 to 137 °C	–	–	–
CON1CCC2(CC1)C(O)=C(c1c(C)cc(C)cc1C)C(=O)N2OCC1CCCCC1 [Compound P2ii.96]	169 to 172 °C	–	–	–
CCOC(=O)OC1=C(c2c(C)cc(Br)cc2C)C(=O)N(C)C12CCN(OC)CC2 [Compound P1.12]	–	16.0%	3.8 cm	–
CON1CCC2(CC1)C(O)=C(c1c(C)cc(C)cc1C)C(=O)N2C [Compound P2.2, 4-hydroxy-8-methoxy-1-methyl-3-(2,4,6-trimethyl-phenyl)-1,8-diaza-spiro[4.5]dec-3-en-2-one]	–	–	–	Mean shoot height increase (%) ([1]; AI concentration 4 ppm): 7.2%; Mean shoot height increase in cm ([1]; AI concentration 4 ppm): 1.4 cm
CON1CCC2(CC1)C(O)=C(c1cc(C)ccc1C)C(=O)N2C [Compound P2.1]	121 to 123 °C	–	–	–
